# Results from patent publication US20130034522A1, “THERAPIES FOR TREATING HEPATITIS C VIRUS INFECTION” (priority 2010, published 2013).
# Legend:
# [1] = tested on: hepatitis C virus (HCV) replicon; assay: HCV replicon cell assay; format: cell-based; details: HCV RNA level, 48-hour incubation
# Method: Cells containing hepatitis C virus (HCV) replicon were maintained in DMEM containing 10% fetal bovine serum (FBS), 0.25 mg per ml of G418, with appropriate supplements (media A).
# On day 1, replicon cell monolayer was treated with a trypsin:EDTA mixture, removed, and then media A was diluted into a final concentration of 100,000 cells per ml with 10,000 cells in 100 μl were plated into each well of a 96-well tissue culture plate, and cultured overnight in a tissue culture incubator at 37° C.
# On day 2, compounds (in 100% DMSO) were serially diluted into DMEM containing 2% FBS, 0.5% DMSO, with appropriate supplements (media B). The final concentration of DMSO was maintained at 0.5% throughout the dilution series.
# Media on the replicon cell monolayer was removed, and then media B containing various concentrations of compounds was added. […]
# A Taqman real-time RT-PCR quantification assay was set up with two sets of specific primers and probe. […] Total RNA extractants from treated HCV replicon cells was added to the PCR reactions for quantification of both HCV and BVDV RNA in the same PCR well. […] The level of HCV RNA in each well was calculated according to a standard curve run in the same PCR plate. The percentage of inhibition or decrease of HCV RNA level due to compound treatment was calculated using the DMSO or no compound control as 0% of inhibition. […]
# [2] = male, human, in vivo
# Method: 25 healthy male volunteers were enrolled.
# A dose escalation scheme was used that combined dose doubling and modified Fibonacci to be aggressive in the lower dose range and conservative in the higher dose range.
# A pharmacokinetics analysis was performed using the statistical moment approach.
# HCV = details: monotherapy, patients; cited from earlier work
# [3] = PK of prodrugs of Compound 1 in rats; format: in vivo; details: oral gavage 3 mg/kg, plasma, FIG. 9
# Method: The prodrugs whose PK parameters are to be determined can be formulated as a solution in 0.5% MC/0.5% Tween 80/99% water and administered orally by gavage to rats at a dose of 3 mg/kg. Rats are weighed the day before the study. Rat plasma is sampled predose and at 15, 30 min, 1, 2, 3, 4, 6, 8, 12 and 24 hrs post dose using Instech automatic blood sampling equipment. Blood is collected in tubes containing K2-EDTA and 110 uL plasma are extracted for analysis. Rats are fed ad lib and standard IACUC and SOP protocols are followed. Plasma samples and dose samples are analyzed using LC/MS/MS for both the prodrug compound and the active metabolite. PK parameters for both analytes for each subject are calculated using the measured dose of prodrug.
molecule,measurement,setting,value
CCC[C@H](NC(=O)[C@@H]1[C@H]2CCC[C@H]2CN1C(=O)[C@@H](NC(=O)[C@@H](NC(=O)c1cnccn1)C1CCCCC1)C(C)(C)C)C(=O)C(=O)NC1CC1 [VX-950],IC50,[1],0.24 µg/mL
same,IC90,[1],0.476 µg/mL
same,eliminated unchanged in the urine,[2],Less than 2%
interferon alfa,"long term remission, fraction of cases",HCV,~25%
C[C@@H](N)C(=O)O[C@H]1CC[C@H](N(c2cc(C#CC(C)(C)C)sc2C(=O)O)C(=O)[C@H]2CC[C@H](C)CC2)CC1 [Compound H],in vivo conversion of prodrug,[3],converted into the —OH active metabolite
